Measurements as given in patent US6558900B2, “Regulation of apoptosis and in vitro model for studies thereof” (Emory University, priority 1996, dated 2003).

Tests used:
[1] = system: CPP32; experiment: dATP and cytochrome c-dependent activation of CPP32 in S-100 from human monoblastic U937 cells; assay type: biochemical
Description: (§1) FIG. 8 illustrates dATP and cytochrome c-dependent activation of CPP32 in S-100 cytosol preparations (immunodepleted of cytochrome c) from human embryonic kidney 293 cells and human monoblastic U937 cells. CPP32 activation reactions were carried out as described in FIG. 7 except 25 μg of S-100 was used in each reaction. 1 mM of dATP was present in lanes 2, 4, 6, 8, 10, and 12. Lanes 1 and 2, S-100 fraction from 293 cells; Lanes 3-4, S-100 fraction from 293 cells immunodepleted of cytochrome c; lanes 5 and 6, S-100 fraction from 293 cells immunodepleted of cytochrome c supplemented with 0.2 μg of Apaf-2 purified through the Mono S column step; Lanes 7 and 8, S-100 fraction from U937 cells; […], S-100 fraction from U937 cells immunodepleted of cytochrome c; lanes 11,12, S-100 fraction from U937 cells immunodepleted of cytochrome c supplemented with 0.2 μg of Apaf-2 purified through Mono S column step.
(§2) To investigate whether the dATP and cytochrome c-dependent activation of CPP32 is a general phenomenon, cytosols were prepared from human embryonic kidney 293 cells and human monoblastic leukemia U937 cells.
(§3) 293 cells were set up at 5×10^5 cells per 100 mm dish in medium A [Dulbecco's modified Eagle's medium (DMEM) supplemented with 10% (v/v) heat-inactivated fetal calf serum, 100 U/ml penicillin and 100 μg/ml streptomycin sulfate]. […]

[2] = system: CPP32; experiment: dATP and cytochrome c-dependent activation of CPP32 in S-100 from human embryonic kidney 293 cells; assay type: biochemical
Description: as §1, §2, §3

[3] = system: CPP32; experiment: Apaf-2 activity: recombining with phosphocellulose flow through fraction (Apaf-1) and 35S-labeled CPP32; assay type: biochemical, human; details: phosphocellulose fraction alone, with or without 1 mM dATP
Description: FIG. 3 illustrates fractionation and reconstitution of dATP-dependent activation of CPP32 by phosphocellulose chromatography. HeLa cell S-100 was subjected to phosphocellulose chromatography and the column flow through and bound material were collected as described in the Examples. Aliquots (10 μl) of HeLa S-100 (50 μg) (lanes 1 and 2), phosphocellulose flow through fraction (PC-FT) (lanes 3 and 4), phosphocellulose bound fraction (PC-B) (lanes 5 and 6), and the mixture of phosphocellulose flow through and bound material (lanes 7 and 8) were incubated with aliquots of 3 μl in vitro translated, ^35S-labeled CPP32 at 30° C. for 1 hr in the absence (lanes 1,3,5,7) or presence (lanes 2,4,6,8) of 1 mM dATP. The samples were subjected to SDS-PAGE, transferred to a nitrocellulose filter, and the filter was exposed to film for 16 hours at room temperature.
The Apaf-2 activity that bound to the phosphocellulose column was purified through the Mono S column as described in Example 7. […] In FIG. 4B, aliquots (30 μl) of the Mono-S fractions were subjected to 15% SDS-PAGE and the proteins were visualized by silver staining.
Aliquots of 0.2 μg of Apaf-2 purified through the Mono S column (lanes 1, 2), cytochrome c from bovine heart (lanes 3, 4), and rat liver (lanes 5, 6) were incubated with aliquots of 10 μl phosphocellulose flowthrough fraction and 3 μl in vitro translated, 35S-labeled CPP32 at 30° C. for 1 hr in a final volume of 20 μl buffer A in the absence (lanes 1,3,5) or presence of (lanes 2, 4, 6) 1 mM dATP. Samples were subjected to SDS-PAGE and transferred to a nitrocellulose filter which was then exposed to a film for 16 hr at room temperature.
To isolate the protein(s) required for the activation of CPP32, HeLa S-100 was loaded onto a phosphocellulose column, and the flow-through and bound fractions were collected. […] When the flowthrough and bound fractions were mixed, CPP32-activating activity was restored (lanes 7-8). […] The factor(s) that flow through the phosphocellulose column are designated apoptotic protease activating factor-1 (Apaf-1) and the factor that bound to the column is designated apoptotic protease activating factor-2 (Apaf-2). It is understood that “Apaf-1” may represent more than one protein or it may represent a combination of protein(s) and other factors.
Apaf-2 activity was assayed by recombining with Apaf-1 after purification by the following steps. First, the Apaf-2 fraction was subjected to 50% ammonium sulfate precipitation. All of the activity remained in the supernatant while most of the protein precipitated (Table I). The supernatant was loaded onto a phenyl-sepharose (hydrophobic interaction) column and the activity was eluted with 1 M ammonium sulfate. The eluate was passed through a gel filtration column; active fractions were subjected to sequential Mono Q (anion exchange) and Mono S (cation exchange) chromatography. The Apaf-2 activity flowed through the Mono Q column, and the flow through was directly loaded onto the Mono S column. Bound Apaf-2 activity was then eluted with a 100-300 mM NaCl linear salt gradient. The fractions from the Mono S column were collected and assayed. […] The active fractions were analyzed by SDS-PAGE (FIG. 4B). A protein of apparent molecular mass of 15 kDa was co-eluted with the activity. No other proteins were detected by silver staining in the active Apaf-2 fractions.
CPP32 was translated and purified as described above. […]

| Compound | dATP-dependent CPP32 activating activity of S-100 ([1]; U937 cell S-100, 1 mM dATP) | dATP-dependent CPP32 activating activity of S-100 ([2]; 293 cell S-100, 1 mM dATP) | restoration of CPP32 activating activity ([1]; U937 cell S-100 immunodepleted of cytochrome c, 0.2 μg, 1 mM dATP) | restoration of CPP32 activating activity ([2]; 293 cell S-100 immunodepleted of cytochrome c, 0.2 μg, 1 mM dATP) | dATP-dependent activation of CPP32 by fraction alone [3] |
| --- | --- | --- | --- | --- | --- |
| Nc1ncnc2c1ncn2[C@H]1C[C@H](O)[C@@H](COP(=O)(O)OP(=O)(O)OP(=O)(O)O)O1 [dATP, deoxyadenosine-5-triphosphate] | contained a dATP-dependent CPP32 activating activity | contained a dATP-dependent CPP32 activating activity |  |  |  |
| Apaf-2: 15 kDa factor bound to phosphocellulose column, purified from HeLa S-100, identified as human cytochrome c |  |  | restored the activity | restored the activity | Neither fraction alone supported dATP-dependent activation of CPP32 |
